# Paper PMC10817917, “Alkyl deoxyglycoside-polymyxin combinations against critical priority carbapenem-resistant gram-negative bacteria” (Scientific Reports, 2024)
# Read-outs that look alike come from different tables or passages of the source.
# Tests used:
# K. pneumoniae CQ4921 = assay: Broth microdilution MIC/MBC, glycosides with or without polymyxins; format: cell-based, Klebsiella pneumoniae; conditions: for MIC: Klebsiella pneumoniae, CQ4921
# E. cloacae CQ1941 = assay: as above; format: cell-based; conditions: for MIC: Enterobacter cloacae, CQ1941
# K. pneumoniae CQ1947 = assay: Broth microdilution MIC, glycosides with or without polymyxins; format: cell-based, Klebsiella pneumoniae; conditions: for MIC: Klebsiella pneumoniae, CQ1947
# P. aeruginosa CQ4924 = assay: as above; format: cell-based, Pseudomonas aeruginosa; conditions: for MIC: Pseudomonas aeruginosa, CQ4924
# [1] = alone, read-out: MICA (MIC of each compound individually)
# [2] = combination with the lowest FICI
# [3] = compound + colistin, lowest FICI
smiles,measurement,setting,value
"CCCCCCCCCCCCO[C@@H]1O[C@H](C)C[C@H](O)[C@H]1O [Compound 2, dodecyl 4,6-dideoxy-α/β-D-xylo-hexopyranoside]",MIC of colistin in combination with the compound,"K. pneumoniae CQ4921; Cpd conc. 0.4 μg/mL, strain C",0.5 µg/mL
same,MIC of colistin in combination with the compound,"K. pneumoniae CQ4921; Cpd conc. 0.8 μg/mL, strain C",0.5 µg/mL
same,MIC of colistin in combination with the compound,"K. pneumoniae CQ4921; Cpd conc. 3.125 μg/mL, strain C",0.125 µg/mL
same,MIC of colistin in combination with the compound,"K. pneumoniae CQ4921; Cpd conc. 6.25 μg/mL, strain C",0.125 µg/mL
same,MIC of colistin in combination with the compound,"K. pneumoniae CQ4921; Cpd conc. 12.5 μg/mL, strain C",0.125 µg/mL
same,MIC of colistin in combination with the compound,"K. pneumoniae CQ4921; Cpd conc. […], strain C",0.5 µg/mL
same,MIC,"K. pneumoniae CQ4921; agent alone, no adjuvant (polymyxin conc. 0), strain C, read-out: MIC",> 100 µg/mL
same,MIC,K. pneumoniae CQ4921; [1],> 100 µg/mL
same,MIC of compound in combination with PMB,"K. pneumoniae CQ4921; PMB 0.5 μg/mL, strain C",≤ 0.1 µg/mL
same,MIC of compound in combination with colistin,"K. pneumoniae CQ4921; colistin 0.06 μg/mL, strain C",> 100 µg/mL
same,MBC of compound in combination with colistin,"K. pneumoniae CQ4921; colistin 0.125 μg/mL, strain C",6.3 µg/mL
same,MIC of compound in combination with colistin,"K. pneumoniae CQ4921; colistin 0.125 μg/mL, strain C",3.1 µg/mL
same,MIC of compound in combination with colistin,"K. pneumoniae CQ4921; colistin 0.25 μg/mL, strain C",3.1 µg/mL
same,MIC of compound in combination with colistin,"K. pneumoniae CQ4921; colistin 0.5 μg/mL, strain C",≤ 0.1 µg/mL
same,MICA(A + B) (MIC of compound in combination with colistin),K. pneumoniae CQ4921; [2],3.125 µg/mL
same,MICB(A + B) (MIC of colistin in combination with compound),K. pneumoniae CQ4921; [2],0.125 µg/mL
same,Interpretation (of FICI),K. pneumoniae CQ4921; compound + colistin,Synergy (Values ≤ 0.5 were considered synergistic)
same,FICI,K. pneumoniae CQ4921; [3],0.27
same,MIC of colistin in combination with the compound,"E. cloacae CQ1941; Cpd conc. 0.4 μg/mL, strain D",0.5 µg/mL
same,MIC of colistin in combination with the compound,"E. cloacae CQ1941; Cpd conc. 0.8 μg/mL, strain D",0.5 µg/mL
same,MIC of colistin in combination with the compound,"E. cloacae CQ1941; Cpd conc. 3.125 μg/mL, strain D",0.25 µg/mL
same,MIC of colistin in combination with the compound,"E. cloacae CQ1941; Cpd conc. 6.25 μg/mL, strain D",0.25 µg/mL
same,MIC of colistin in combination with the compound,"E. cloacae CQ1941; Cpd conc. 12.5 μg/mL, strain D",0.125 µg/mL
same,MIC of colistin in combination with the compound,"E. cloacae CQ1941; Cpd conc. […], strain D",0.25 µg/mL
same,MIC,"E. cloacae CQ1941; agent alone, no adjuvant (polymyxin conc. 0), strain D, read-out: MIC",> 100 µg/mL
same,MIC,E. cloacae CQ1941; [1],> 100 µg/mL
same,MIC of compound in combination with PMB,"E. cloacae CQ1941; PMB 0.25 μg/mL, strain D",12.5 µg/mL
same,MIC of compound in combination with PMB,"E. cloacae CQ1941; PMB 0.5 μg/mL, strain D",≤ 0.1 µg/mL
same,MIC of compound in combination with colistin,"E. cloacae CQ1941; colistin 0.06 μg/mL, strain D",> 100 µg/mL
same,MBC of compound in combination with colistin,"E. cloacae CQ1941; colistin 0.125 μg/mL, strain D",25 µg/mL
same,MIC of compound in combination with colistin,"E. cloacae CQ1941; colistin 0.125 μg/mL, strain D",12.5 µg/mL
same,MIC of compound in combination with colistin,"E. cloacae CQ1941; colistin 0.25 μg/mL, strain D",1.6 µg/mL
same,MIC of compound in combination with colistin,"E. cloacae CQ1941; colistin 0.5 μg/mL, strain D",≤ 0.1 µg/mL
same,MICA(A + B) (MIC of compound in combination with colistin),E. cloacae CQ1941; [2],12.5 µg/mL
same,MICB(A + B) (MIC of colistin in combination with compound),E. cloacae CQ1941; [2],0.125 µg/mL
same,FICI,E. cloacae CQ1941; [3],0.31
same,MIC of colistin in combination with the compound,"K. pneumoniae CQ1947; Cpd conc. 0.4 μg/mL, strain F",> 0.5 µg/mL
same,MIC of colistin in combination with the compound,"K. pneumoniae CQ1947; Cpd conc. 0.8 μg/mL, strain F",0.5 µg/mL
same,MIC of colistin in combination with the compound,"K. pneumoniae CQ1947; Cpd conc. 3.125 μg/mL, strain F",0.5 µg/mL
same,MIC of colistin in combination with the compound,"K. pneumoniae CQ1947; Cpd conc. 6.25 μg/mL, strain F",0.5 µg/mL
same,MIC of colistin in combination with the compound,"K. pneumoniae CQ1947; Cpd conc. 12.5 μg/mL, strain F",0.5 µg/mL
same,MIC of colistin in combination with the compound,"K. pneumoniae CQ1947; Cpd conc. […], strain F",0.5 µg/mL
same,MIC,"K. pneumoniae CQ1947; agent alone, no adjuvant (polymyxin conc. 0), strain F, read-out: MIC",> 100 µg/mL
same,MIC,K. pneumoniae CQ1947; [1],> 100 µg/mL
same,MIC of compound in combination with PMB,"K. pneumoniae CQ1947; PMB 0.25 μg/mL, strain F",> 100 µg/mL
same,MIC of compound in combination with PMB,"K. pneumoniae CQ1947; PMB 0.5 μg/mL, strain F",0.8 µg/mL
same,MIC of compound in combination with colistin,"K. pneumoniae CQ1947; colistin 0.06 μg/mL, strain F",> 100 µg/mL
same,MIC of compound in combination with colistin,"K. pneumoniae CQ1947; colistin 0.125 μg/mL, strain F",> 100 µg/mL
same,MIC of compound in combination with colistin,"K. pneumoniae CQ1947; colistin 0.25 μg/mL, strain F",> 100 µg/mL
same,MIC of compound in combination with colistin,"K. pneumoniae CQ1947; colistin 0.5 μg/mL, strain F",0.8 µg/mL
same,MICA(A + B) (MIC of compound in combination with colistin),K. pneumoniae CQ1947; [2],0.8 µg/mL
same,MICB(A + B) (MIC of colistin in combination with compound),K. pneumoniae CQ1947; [2],0.5 µg/mL
same,Interpretation (of FICI),K. pneumoniae CQ1947; compound + colistin,Indifferent (1.0 to 4.0 were indifferent)
same,FICI,K. pneumoniae CQ1947; [3],1.004
same,MIC of colistin in combination with the compound,"P. aeruginosa CQ4924; Cpd conc. 0.4 μg/mL, strain H",> 0.5 µg/mL
same,MIC of colistin in combination with the compound,"P. aeruginosa CQ4924; Cpd conc. 0.8 μg/mL, strain H",> 0.5 µg/mL
same,MIC of colistin in combination with the compound,"P. aeruginosa CQ4924; Cpd conc. 3.125 μg/mL, strain H",> 0.5 µg/mL
same,MIC of colistin in combination with the compound,"P. aeruginosa CQ4924; Cpd conc. 6.25 μg/mL, strain H",0.5 µg/mL
same,MIC of colistin in combination with the compound,"P. aeruginosa CQ4924; Cpd conc. 12.5 μg/mL, strain H",0.5 µg/mL
same,MIC of colistin in combination with the compound,"P. aeruginosa CQ4924; Cpd conc. […], strain H",> 0.5 µg/mL
same,MIC of compound in combination with PMB,"P. aeruginosa CQ4924; PMB 0.25 μg/mL, strain H",> 100 µg/mL
same,MIC,"P. aeruginosa CQ4924; agent alone, no adjuvant (polymyxin conc. 0), strain H, read-out: MIC",> 100 µg/mL
same,MIC,P. aeruginosa CQ4924; [1],> 100 µg/mL
same,MIC of compound in combination with colistin,"P. aeruginosa CQ4924; colistin 0.06 μg/mL, strain H",> 100 µg/mL
same,MIC of compound in combination with colistin,"P. aeruginosa CQ4924; colistin 0.125 μg/mL, strain H",> 100 µg/mL
same,MIC of compound in combination with colistin,"P. aeruginosa CQ4924; colistin 0.25 μg/mL, strain H",> 100 µg/mL
same,MIC of compound in combination with colistin,"P. aeruginosa CQ4924; colistin 0.5 μg/mL, strain H",6.3 µg/mL
same,MICA(A + B) (MIC of compound in combination with colistin),P. aeruginosa CQ4924; [2],6.25 µg/mL
same,MICB(A + B) (MIC of colistin in combination with compound),P. aeruginosa CQ4924; [2],0.5 µg/mL
same,Interpretation (of FICI),P. aeruginosa CQ4924; compound + colistin,Additive (from 0.5 to 1.0 were additive)
same,FICI,P. aeruginosa CQ4924; [3],0.53
